Laboratory results published in patent US20230098111A1, “COMPOSITIONS AND METHODS TO TREAT NEUROLOGICAL DISEASES” (University of Southern California, priority 2020, published 2023).
Entries after “also recorded” stand apart in the source; their conditions may differ.

What was measured:
[1] = target: T1, Neutral Sphingomyelinase 2 (Mus musculus, UniProt Q9JJY3); settings: mice overexpressing TDP-43; cited from earlier work
T1 construct: In mice overexpressing TDP-43, neurons secrete exosomes containing phospho-TDP-43; host or cells: neurons of TDP-43-overexpressing mice (endogenous enzyme, in vivo)
T1 sequence (Q9JJY3 1-655): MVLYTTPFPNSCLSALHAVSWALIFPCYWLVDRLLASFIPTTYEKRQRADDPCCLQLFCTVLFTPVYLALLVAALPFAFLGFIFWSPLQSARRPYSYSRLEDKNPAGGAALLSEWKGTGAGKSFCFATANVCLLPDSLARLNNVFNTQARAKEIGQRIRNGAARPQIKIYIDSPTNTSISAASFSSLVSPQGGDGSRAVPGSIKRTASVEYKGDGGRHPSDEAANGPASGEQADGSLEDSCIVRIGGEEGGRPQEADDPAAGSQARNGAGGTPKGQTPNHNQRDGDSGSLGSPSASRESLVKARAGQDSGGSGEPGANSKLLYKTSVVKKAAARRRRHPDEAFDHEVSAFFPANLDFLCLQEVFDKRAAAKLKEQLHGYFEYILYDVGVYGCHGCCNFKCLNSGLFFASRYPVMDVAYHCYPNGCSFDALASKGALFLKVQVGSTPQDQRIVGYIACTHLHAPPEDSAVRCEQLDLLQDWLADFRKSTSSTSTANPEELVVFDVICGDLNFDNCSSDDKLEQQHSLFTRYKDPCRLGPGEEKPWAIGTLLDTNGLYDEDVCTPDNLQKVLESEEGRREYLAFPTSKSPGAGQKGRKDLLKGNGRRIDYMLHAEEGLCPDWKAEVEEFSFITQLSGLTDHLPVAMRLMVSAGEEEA

C9-ALS/FTD iMNs = test: Exosome secretion from iMNs; assay type: cell-based, human; settings: apilimod+GW4869
Description: (A) Western blot of TSG101, TDP-43, and Neurofilament heavy chain levels in the exosome fraction secreted from control or C9-ALS/FTD iMNs upon apilimod treatment. […] Kruskal-Wallis test for B, C. N=3 biological replicates per condition, one line per genotype. (D) Number of poly(GR)-GFP+ exosomes secreted from iMNs expressing exogenous poly(GR)-GFP upon DMSO or apilimod treatment. N=4 biological replicates. Exosomes were labeled with CFSE-red dye to enable detection by FACS. Unpaired t-test.
Blocking PIKFYVE activity induces secretory autophagy. […] Thus, secretory autophagy maintains proteostasis and prevents neuronal death in TDP-43 mouse models. PIKFYVE inhibition blocks autophagosome-lysosome fusion by […] their ratio in endosomal, lysosomal and autophagosomal membranes. One might expect this to be detrimental to ALS iMNs, which can degenerate due to misfolded protein accumulation. However, inhibition of autophagosome-lysosome fusion using PIKFYVE inhibition or bafilomycin can activate secretory autophagy to jettison misfolded proteins from cells. […] To test this hypothesis, exosomal release in human iMNs upon PIKFYVE inhibition was examined. […] Thus, PIKFYVE inhibition induces the secretion of TDP-43 and C9ORF72 DPRs from iMNs.
Determining if PIKFYVE suppression rescues neurodegeneration through secretory autophagy. […] ASOs were designed targeting […]. It was confirmed that the ASOs suppressed RAB27A expression in iMNs.

C9ORF72 FTD iNs = test: Survival of C9ORF72 FTD iNs; assay type: cell-based, human; settings: Apilimod+GW4869 (exocytosis blocker)
Description: (A) Survival of C9ORF72 iNs with DMSO or apilimod. Log-rank test, 100 iNs per group. […] Log-rank test, 100 iNs per group. […] Mean+/−s.e.m. Kruskal-Wallis Test.
(A, B) Survival of C9-FTD iNs treated with DMSO and Apilimod (A) or Apilimod+GW4869 (exocytosis blocker) (B). Log-rank test. 100 iNs per group. iNs quantified from 3 independent replicates per group.
Mutations in MAPT cause FTD with tau aggregates. To determine if iNs from FTD patients display neurodegenerative phenotypes, an established method to generate cortical neurons from iPSCs by forced expression of NGN2 was used. 3 FTD patient iPSC lines harboring a MAPTV337M mutation and their CRISPR-edited isogenic controls from a published cell bank were utilized. Neurons from MAPT-mutant iPSCs display increased phosphorylated and oligomeric tau, similar to post-mortem patient tissue (FIG. 18A). […] Thus, MAPT iNs display key features of FTD with tau pathology.
Thus, C9ORF72 iNs provide a robust model of FTD.
(§1) PIKFYVE inhibition rescues neurodegeneration through secretory autophagy.

C9-FTD iNs = test: Exosome secretion from iNs; assay type: cell-based, human; settings: apilimod+GW4869
Description: (A) […] of exosomes from apilimod-treated C9-FTD iNs. (B) Western blot of TSG101, TDP-43, and Neurofilament heavy chain levels in the exosome fraction secreted from control or C9-FTD iNs upon apilimod treatment. (C,D) Quantification of the exosome marker TSG101 (C) or TDP-43 (D) in the exosome fraction of control and C9-FTD iNs treated with DMSO, apilimod, or apilimod+GW4869. Kruskal-Wallis test for B, C. N=3 biological replicates per condition, one line per genotype. (E) Number of poly(GR)-GFP+ exosomes secreted from iNs expressing exogenous poly(GR)-GFP upon DMSO or apilimod treatment. N=4 biological replicates. Exosomes were labeled with CFSE-red dye to enable detection by FACS. Unpaired t-test.
To test this, exosome release from iNs upon PIKFYVE inhibition was examined. […] Thus, PIKFYVE inhibition induces the secretion of TDP-43 and C9ORF72 DPRs from iNs
as §1

TARDBP mice = test: Motor deficits in TDP-43 (TARDBP) mice; assay type: in vivo
Description: (A) Gait impairment, (B) Kyphosis, and (C) Tremor scoring in wild-type (WT) and TDP-43 homozygous mice treated with a negative control (NC) ASO or Pikfyve ASO at P0. Fore each assay, a score of 0 indicates no phenotype and 4 indicates the most severe phenotype.
To determine if ASO-mediated PIKFYVE suppression can rescue neurodegeneration in mouse models of ALS, two mouse models—a C9ORF72 model based on adeno-associated virus (AAV)-mediated overexpression of poly(GR) and a TDP-43 mouse mode were established. Both models develop neurodegeneration, motor impairment, and paralysis. […]

sporadic ALS iMNs = test: Survival of sporadic ALS iMNs
Description: (A) Survival of control (CTRL) and C9ORF72 ALS/FTD patient (C9-ALS) iMNs with a 12-hour pulse treatment of excess glutamate shown for each individual line separately. iMNs quantified from 3 independent iMN conversions per line. (B-D) Immunofluorescence analysis of total TDP-43 (B) and quantification of the ratio of nuclear to cytoplasmic TDP-43 in control, C9-ALS (C), or sporadic ALS (D) iMNs. MNs from 2 controls and 2 C9-ALS patients (C) or 4 sporadic ALS patients (D) were quantified. n=30 (controls), 30 (C9-ALS/FTD), or 36 (sporadic) iMNs per line per condition from 2 biologically independent iMN conversions of 2 control, 2 C9-ALS/FTD, or 4 sporadic ALS lines were quantified. Each gray circle represents a single iMN. Median±interquartile range. Unpaired Mann-Whitney test. Scale bars: 5 μm. Dotted lines outline the nucleus and cell body. (E) Survival of control and sporadic iMNs with glutamate treatment. iMNs quantified from 3 independent iMN conversions per line. For iMN survival experiments, significance was measured by 2-sided log-rank test using the entire survival time course.
(B) Survival of C9-ALS/FTD iMNs with DMSO or apilimod. (C) Survival of sporadic ALS induced motor neurons (iMNs) with DMSO or apilimod. (D) Survival of C9-ALS/FTD iMNs with a scrambled ASO or PIKFYVE ASOs, 100 iMNs per group. […] Unpaired t-test. iMN survival experiments analyzed by log-rank test. […]

[2] = tested on: C9ORF72 dipeptide repeat proteins; test: DPR levels in C9ORF72-BAC mice; assay type: in vivo; settings: ASO injected into hippocampus, 7 days (12 days in FIG. 8-10)
Procedure: DRP aggregates (Poly(GR) red) accumulate in the cells (white outline) of C9-BAC mice.
(§2) (A) Mass spectrometry analysis of Optineurin (OPTN) levels in the cerebrospinal fluide (CSF) of mice 2 hours after direct intracerebroventral injection of a vehicle control or apilimod. n=3 mice per group. The ratio of Optineurin in the CSF of apilimod:vehicle-injected mice is shown. (B) Poly(GR)+ DPR punctae in wild-type or C9ORF72 mice treated with intracerebroventricular injection of apilimod for 48 hours. Mean+/−s.e.m. Data points are individual neurons taken across 3 mice per group. One-way ANOVA. […] Unpaired t-test. (D) Pikfyve qRT-PCR of whole brain. n=3 mice per group at postnatal day 7. Unpaired t-test. (E) Gait impairment scoring in wild-type (WT) and TDP-43 homozygous mice treated with a negative control (NC) ASO or Pikfyve ASO at postnatal day 1. Mean+/−s.e.m. Unpaired t-test at each time point between the negative control and Pikfyve ASO conditions for TDP-43 mice. A score of 0 indicates no phenotype and 4 indicates the most severe phenotype. (F) Vehicle or GW4869 were delivered by intraperitoneal injection every 48 h starting from day 6 in negative control and Pikfyve ASO-treated mice. Mean+/−s.e.m. One-way ANOVA at each time point between the four conditions. *p<0.05, **p<0.01, ***p<0.001, ****p<0.0001.
PIKFYVE inhibition rescues neurodegeneration in vivo. […] Since TARDBP overexpressing mice show motor deficits and neurodegeneration, we used TARDBP mice to test the efficacy of Pikfyve suppression.
(§3) Determining whether PIKfyve-targeting ASOs can reverse ALS disease progression in vivo. To determine if PIKfyve-targeting ASOs can reverse ALS disease processes in vivo, can PIKfyve ASOs lower levels of C9ORF72 dipeptide repeat proteins in mice. Dipeptide repeat proteins are generated from the C9ORF72 repeat expansion by repeat-associated non-AUG-dependent translation and are neurotoxic.
(§4) To determine if ASO-mediated Pikfyve suppression lowers C9ORF72 poly(GR) levels in mice, Pikfyve ASOs were injected into the hippocampus of adult C9ORF72-BAC mice, which harbor a C9ORF72 repeat expanded transgene and accumulate poly(GR)+ aggregates in hippocampal neurons.

Pikfyve [3] = test: Pikfyve expression in hippocampus after ASO injection; assay type: in vivo, mice; settings: direct ASO injection into hippocampus, 7 days
Description: as §3, §4

Pikfyve [4] = test: Pikfyve qRT-PCR of whole brain after intracerebroventricular ASO; assay type: in vivo, mice; settings: intracerebroventricular ASO injection at P0/P1, brain at P7
Procedure: as §2
(A) Gait impairment, (B) Kyphosis, and (C) Tremor scoring in wild-type (WT) and TDP-43 homozygous mice treated with a negative control (NC) ASO or Pikfyve ASO at P0. […]

TDP-43 mutant mice = test: TDP-43 pathology, neurodegeneration and survival in TDP-43 mice; assay type: in vivo
Description: (A, B) Images (A) and quantification (B) of phosphorylated TDP-43 (pTDP43)+ punctae in spinal motor neurons of day 21 wild-type or TDP-43 mutant mice treated with a negative control (NC ASO) or Pikfyve ASO. Each data point represents one mouse, mean+/−s.e.m., one-way ANOVA. In (A), each arrow marks a pTDP-43+ puncta. […] (C, D) Images (C) and quantification (D) of nuclear and cytoplasmic TDP-43 intensity in spinal motor neurons of day 21 wild-type or TDP-43 mutant mice treated with a negative control (NC ASO) or Pikfyve ASO. Each data point represents one mouse, mean+/−s.e.m., one-way ANOVA. […] (E, F) Images (E) and quantification (F) of the average number of Neurotrace (Nissl)+ spinal motor neurons per ventral horn per mouse. Each data point represents one mouse, mean, one-way ANOVA. In (E), orange dotted lines outline the ventral horn area quantified and white dotted lines outline the spinal cord. (G) Survival of TDP-43 mutant mice treated with a negative control (NC ASO) or Pikfyve ASO. Log-rank test. *p<0.05, **p<0.01, ***p<0.001, ****p<0.0001.

## O=C(/C=C/c1ccc(/C=C/C(=O)Nc2ccc(C3=NCCN3)cc2)cc1)Nc1ccc(C2=NCCN2)cc1 [GW4869]
[1]
  TDP-43 mouse survival: decreased TDP-43 mouse survival
  neurodegeneration: accelerated neurodegeneration
  neuronal cytoplasmic TDP-43 aggregates: increased neuronal accumulation of cytoplasmic TDP-43 aggregates
C9-ALS/FTD iMNs
  apilimod-induced release of exosomes containing TSG101 and TDP-43 from ALS iMNs with GW4869: blocked apilimod-induced release of exosomes
C9ORF72 FTD iNs
  apilimod rescue of C9ORF72 iN survival in presence of GW4869: blocked apilimod's ability to rescue
C9-FTD iNs
  apilimod-induced release of exosomes from C9ORF72 iNs with GW4869: impaired apilimod-induced release of exosomes
TARDBP mice; GW4869 intraperitoneal every 48 h from day 6
  motor rescue by PIKFYVE ASOs in presence of GW4869: blocked motor rescue by PIKFYVE ASOs

## Nc1ccc(C(=O)Nc2cccc(-c3nc(N4CCOCC4)c4oc5ncccc5c4n3)c2)cn1 [YM201636]
Sporadic ALS iMNs
  sporadic ALS iMN survival: rescued C9ORF72 and sporadic ALS

## GGTGCATGCTCGGAGGTCTC (chemistry not given here) [Pikfyve ASO, mouse Pikfyve ASO gapmer for in vivo experiments, 5-10-5 2′-MOE, phosphorothioate]
[2]
  DPR / poly(GR)+ aggregates in hippocampus of C9ORF72-BAC mice: significantly reduced; also recorded: significantly less DRP aggregates
[2]; listed as PIKfyve ASO
  DPR / poly(GR)+ aggregates in hippocampus of C9ORF72-BAC mice: significantly lowered
[2]; listed as Pikfyve-suppressing ASO
  DPR / poly(GR)+ aggregates in hippocampus of C9ORF72-BAC mice: also lowered DPRs
TARDBP mice; intracerebroventricular injection of Pikfyve ASO
  motor deficits in TARDBP mice: rescued motor deficits
Pikfyve [3]
  Pikfyve expression in hippocampus: significantly reduced
Pikfyve [3]; listed as PIKfyve ASO
  Pikfyve expression in hippocampus: significantly lowered
Pikfyve [4]
  Pikfyve mRNA levels (whole brain qRT-PCR): reduced Pikfyve mRNA levels
Pikfyve [4]; listed as Pikfyve-targeting ASO
  Pikfyve mRNA levels (whole brain qRT-PCR): significantly decreased Pikfyve expression
TDP-43 mutant mice; NC ASO vs Pikfyve ASO
  survival of TDP-43 mutant mice: rescues
TDP-43 mutant mice; Nissl+ spinal motor neurons per ventral horn
  neurodegeneration in TDP-43 mice: rescues
TDP-43 mutant mice; spinal motor neurons, day 21, NC ASO vs Pikfyve ASO
  TDP-43 pathology in TDP-43 mice: rescues
